Data from patent publication US20250099448A1, “HETEROCYCLIC COMPOUNDS” (Hoffmann-La Roche Inc., priority 2022, published 2025).

Target: T1, MAGL protein (Homo sapiens, UniProt Q99685)
T1 sequence (Q99685 1-303): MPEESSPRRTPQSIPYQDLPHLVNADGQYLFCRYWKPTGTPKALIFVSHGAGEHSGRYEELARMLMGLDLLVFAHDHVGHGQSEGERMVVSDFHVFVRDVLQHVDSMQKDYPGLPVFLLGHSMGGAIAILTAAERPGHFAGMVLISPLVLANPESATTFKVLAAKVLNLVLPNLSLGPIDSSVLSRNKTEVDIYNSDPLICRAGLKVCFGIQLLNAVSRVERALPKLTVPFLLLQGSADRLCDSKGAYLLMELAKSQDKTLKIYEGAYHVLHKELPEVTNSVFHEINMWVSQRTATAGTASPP
Assay: 2-AG assay: MAGL inhibitory activity by hydrolysis of 2-arachidonoylglycerol to arachidonic acid, followed by mass spectrometry
Assay type: biochemical
Conditions: 8 μM 2-arachidonoylglycerol, 15 min preincubation, 30 min reaction at RT, RapidFire MS readout
Summary of the method: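 MAGL was preincubated 15 min at RT with compound (12.5 to […], 3-fold steps) in 50 mM TRIS, 1 mM EDTA, 0.01% Tween-20, 2.5% DMSO. The reaction ran 30 min at RT with 8 μM 2-AG. Arachidonic acid was quantified by RapidFire SPE-MS/MS against a d8-arachidonic acid internal standard.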

Row | IC50 [nM] | SMILES
1 | 354 | O=C(N1CC2(CCN(S(=O)(=O)C34CC(C(F)(F)F)(C3)C4)CC2)C1)N1CC2(CC(c3nnc(C4(O)CC4)[nH]3)C2)C1 [compound 238]
2 | 8.36 | O=C(N1CC2(CCC(Cc3nnc(C(F)(F)F)o3)CC2)C1)N1CC2(CC(c3nc(C4CC4)n[nH]3)C2)C1 [compound 779]
3 | 3.45 | O=C(N1CC2(CCN(Cc3cc(C(F)(F)F)sn3)CC2)C1)N1CC2(CC(c3nc(C4CC4)n[nH]3)C2)C1 [compound 432]
4 | 20.4 | N#Cc1cccn(CC2CC3(C2)CN(C(=O)N2CC4(CC(c5nc(C6CC6)n[nH]5)C4)C2)C3)c1=O [compound 510]
5 | 0.96 | O=C(N1CC2(CC(c3nc(C4CC4)n[nH]3)C2)C1)N1CC2(CC(C(F)(F)c3cnc(C(F)(F)F)cn3)C2)C1 [compound 944]
6 | 64.5 | O=C(N1CC2(CC(c3nc(C4CC4)n[nH]3)C2)C1)N1CC2(CN(Cc3nnc(C(F)(F)F)s3)C2)C1 [compound 485]
7 | 0.66 | O=C(N1CC2(CC(Cc3nc(C(F)(F)F)co3)C2)C1)N1CC2(CC(c3nnc(C4CC4)[nH]3)C2)C1 [compound 61]
8 | 7.53 | O=C(N1CC2(CC(c3nc(C4(F)CC4)n[nH]3)C2)C1)N1CC2(CN(Cc3cc(C(F)(F)F)ns3)C2)C1 [compound 531]
9 | 15.8 | O=C(N1CC2(CC(c3nnc(C4(O)CC4)[nH]3)C2)C1)N1CC2(CN(Cc3ccc(F)cc3F)C2)C1 [compound 157]
10 | 2580 | CS(=O)(=O)c1ccc(CC2CC3(C2)CN(C(=O)N2CC4(CC(c5nc(C6CC(F)(F)C6)n[nH]5)C4)C2)C3)nc1 [compound 977]
11 | 0.91 | O=C(N1CC2(CC(Cc3ncc(Cl)cc3F)C2)C1)N1CC2(CC(c3nc(C4CC4)n[nH]3)C2)C1 [compound 613]
12 | 5.08 | O=C(N1CC(OCc2ccc(S(=O)(=O)C(F)(F)F)cc2F)C1)N1CC2(CC(c3nc(C4(F)CC4)n[nH]3)C2)C1 [compound 470]
13 | 3.09 | CP(C)(=O)c1ccc(CC2CC3(C2)CN(C(=O)N2CC4(CC(c5nc(C6CC6)n[nH]5)C4)C2)C3)c(F)c1 [compound 462]
14 | 61.3 | O=C(N1CC2(CC(c3nnc(C4CC4)[nH]3)C2)C1)N1CC2(CN(Cc3ccc(C(F)(F)F)nn3)C2)C1 [compound 160]
15 | 18.7 | O=C(N1CC2(CCC(Oc3ccc(C(F)(F)F)nn3)CC2)C1)N1CC2(CC(c3nnc(C4CCC4)[nH]3)C2)C1 [compound 52]
16 | 0.15 | O=C(N1CC2(CC(Cc3ccc(C(F)(F)F)cn3)C2)C1)N1CC2(CC(c3nc(C4(F)CC4)n[nH]3)C2)C1 [compound 517]
17 | 12.7 | O=C(N1CC(c2ccc(C3(C(F)(F)F)CC3)cc2)C1)N1CC2(CC(c3nc(C4CC(F)(F)C4)n[nH]3)C2)C1 [compound 563]
18 | 45.6 | O=C(N1CC(NCc2ccc(OC(F)(F)F)cc2)C1)N1CC2(CC(c3nnc(C4CC4)[nH]3)C2)C1 [compound 191]
19 | 1040 | Cc1csc(C(=O)N2CCN(C(=O)N3CC4(CC(c5nnc(C6CC6)[nH]5)C4)C3)CC2)c1 [Example 872, [4-[6-(5-cyclopropyl-4H-1,2,4-triazol-3-yl)-2-azaspiro[3.3]heptane-2-carbonyl]piperazino]-(4-methyl-2-thienyl)methanone]
20 | 5.33 | O=C(N1CC2(CC(Cc3cnc(C(F)(F)F)nc3)C2)C1)N1CC2(CC(c3nnc(C4(O)CC4)[nH]3)C2)C1 [compound 21]
21 | 8.16 | N#Cc1cnn(CC2CC3(C2)CN(C(=O)N2CC4(CC(c5nc(C6CC6)n[nH]5)C4)C2)C3)c1 [compound 801]
22 | 0.97 | CC(C)(C)Cc1nnc(C23CC(C4CN(C(=O)N5CC6(CC(c7nnc(C8CC8)[nH]7)C6)C5)C4)(C2)C3)o1 [compound 343]
23 | 0.59 | O=C(N1CC2(CC(Cc3cc(C(F)(F)F)n[nH]3)C2)C1)N1CC2(CC(c3nc(C4(O)CC4)n[nH]3)C2)C1 [compound 589]
24 | 9.21 | COC(=O)c1ccccc1CN1CC2(C1)CN(C(=O)N1CC3(CC(c4nnc(C5CC5)[nH]4)C3)C1)C2 [Example 171, methyl 2-[[2-[6-(5-cyclopropyl-4H-1,2,4-triazol-3-yl)-2-azaspiro[3.3]heptane-2-carbonyl]-2,6-diazaspiro[3.3]heptan-6-yl]methyl]benzoate]
25 | 3.39 | O=C(N1CC2(CC(c3nc(C4(O)CC4)n[nH]3)C2)C1)N1CC2(CCN(Cc3cccc(S(=O)(=O)C(F)(F)F)c3)C2)C1 [compound 482]
26 | 9.48 | O=C(N1CC2(CC(c3nc(C4CC4)n[nH]3)C2)C1)N1CC2(CN(Cc3cnc(C(F)F)s3)C2)C1 [compound 651]
27 | 24.5 | O=C(N1CC2(CC(c3nc(C4CC4)n[nH]3)C2)C1)N1CC2(CN(Cc3nc(C(F)(F)F)co3)C2)C1 [compound 693]

Row | IC50 [nM] | SMILES
28 | 1.49 | NC(=O)[C@@H]1CCCCN1c1ccc(C2CN(C(=O)N3CC4(CC(c5nnc(C6CC6)[nH]5)C4)C3)C2)cc1 [Example 394, (2S)-1-[4-[1-[6-(5-cyclopropyl-4H-1,2,4-triazol-3-yl)-2-azaspiro[3.3]heptane-2-carbonyl]azetidin-3 yl]phenyl]piperidine-2-carboxamide]
29 | 0.13 | O=C(N1CC2(CCC(Oc3cc(Cl)ccc3Cl)CC2)C1)N1CC2(CC(c3nnc(C4(O)CC4)[nH]3)C2)C1 [compound 346]
30 | 0.93 | CS(=O)(=O)c1ccccc1-c1ccc(C2CN(C(=O)N3CC4(CC(c5nc(C6(O)CC6)n[nH]5)C4)C3)C2)cc1 [Example 781, [6-[3-(1-hydroxycyclopropyl)-1H-1,2,4-triazol-5-yl]-2-azaspiro[3.3]heptan-2-yl]-[3-[4-(2-mesylphenyl)phenyl]azetidin-1-yl]methanone]
31 | 35.4 | O=C(N1CC(Oc2cnc(Cl)c(C3CC3)c2)C1)N1CC2(CC(c3nnc(C4CC4)[nH]3)C2)C1 [compound 328]
32 | 26.4 | O=C(N1CC2(CC(c3nc(C4CC4)n[nH]3)C2)C1)N1CC2(CN(Cc3ccn(C(F)(F)F)n3)C2)C1 [compound 601]
33 | 9.72 | Cc1cn(-c2ccc(C3CN(C(=O)N4CC5(CC(c6nnc(C7CC7)[nH]6)C5)C4)C3)cc2)cn1 [Example 806, [6-(5-cyclopropyl-4H-1,2,4-triazol-3-yl)-2-azaspiro[3.3]heptan-2-yl]-[3-[4-(4-methylimidazol-1-yl)phenyl]azetidin-1-yl]methanone]
34 | 1.91 | O=C(N1CC2(CCC(OCC3(C(F)(F)F)CC3)CC2)C1)N1CC2(CC(c3nnc(C4(O)CC4)[nH]3)C2)C1 [compound 66]
35 | 7.94 | Cn1ncc(CC2CC3(C2)CN(C(=O)N2CC4(CC(c5nc(C6COC6)n[nH]5)C4)C2)C3)c1C(F)(F)F [compound 774]
36 | 60.3 | O=C(N1CC2(CCC(Cc3ccc(C(F)(F)F)cn3)CC2)C1)N1CC2(CC(c3nc(C4COC4)n[nH]3)C2)C1 [compound 814]
37 | 0.79 | CS(=N)(=O)c1cc(CC2CC3(C2)CN(C(=O)N2CC4(CC(c5nc(C6CC6)n[nH]5)C4)C2)C3)cc(C(F)(F)F)c1 (centres unmarked) [compound 660]
38 | 0.09 | CS(=O)(=O)c1ccc(-c2ccc(C3CN(C(=O)N4CC5(CC(c6nnc(C7CC7)[nH]6)C5)C4)C3)cc2)c(Cl)c1 [compound 338]
39 | 0.13 | O=C(N1CC2(CC(c3nc(C4CC4)n[nH]3)C2)C1)N1CC2(CC[C@@H](Cc3ccc(S(=O)(=O)C(F)(F)F)cc3)C2)C1 [compound 612]
40 | 1.06 | CS(=N)(=O)c1cc(C(F)(F)F)ccc1CC1CC2(C1)CN(C(=O)N1CC3(CC(c4nc(C5CC5)n[nH]4)C3)C1)C2 (centres unmarked) [compound 481]
41 | 28.1 | NS(=O)(=O)c1ccccc1CN1CC2(C1)CN(C(=O)N1CC3(CC(c4nnc(C5CC5)[nH]4)C3)C1)C2 [compound 170]
42 | 81.9 | Cn1cc(OC2CC3(C2)CN(C(=O)N2CC4(CC(c5nc(C6CC6)n[nH]5)C4)C2)C3)cn1 [compound 542]
43 | 2.3 | N#Cc1c(OC2CN(C(=O)N3CC4(CC(c5nnc(C6CC6)[nH]5)C4)C3)C2)cccc1C1CC1 [compound 310]
44 | 13.1 | O=C(N1CC2(CC(c3nc(C4CC4)n[nH]3)C2)C1)N1CC2(CN(Cc3conc3C(F)(F)F)C2)C1 [compound 663]
45 | 0.31 | O=C(N1CC(COc2ccc(C(F)(F)F)cc2F)C1)N1CC2(CC(c3nnc(C4CC4)[nH]3)C2)C1 [compound 347]
46 | 0.09 | COc1nc(C(F)(F)F)cnc1CC1CC2(C1)CN(C(=O)N1CC3(CC(c4nc(C5CC5)n[nH]4)C3)C1)C2 [compound 943]
47 | 0.45 | O=C(N1CC(c2ccc(N3CCC4(C3)CC4(F)F)nc2)C1)N1CC2(CC(c3nnc(C4CC4)[nH]3)C2)C1 (centres unmarked) [compound 289]
48 | 821 | O=C(c1ccc(-c2ccccn2)s1)N1CCN(C(=O)N2CC3(CC(c4nnc(C5CC5)[nH]4)C3)C2)CC1 [Example 870, [4-[6-(5-cyclopropyl-4H-1,2,4-triazol-3-yl)-2-azaspiro[3.3]heptane-2-carbonyl]piperazino]-[5-(2-pyridyl)-2-thienyl]methanone]
49 | 246 | NC(=O)C1CCCN1c1ccc(C2CN(C(=O)N3CC4(CC(c5nnc(C6CC6)[nH]5)C4)C3)C2)cc1 (centres unmarked) [compound 386]
50 | 0.27 | O=C(N1CC(c2ccc(-n3nc(C(F)F)cc3C3CC3)cc2)C1)N1CC2(CC(c3nnc(C4CC4)[nH]3)C2)C1 [compound 839]
51 | 2.85 | O=C(N1CC2(CC(c3nnc(C4CC4)[nH]3)C2)C1)N1CC2(CN(Cc3nc(-c4ccccc4)no3)C2)C1 [compound 888]
52 | 34.4 | N=S(=O)(c1ccc(CC2CC3(C2)CN(C(=O)N2CC4(CC(c5nc(C6CC(F)(F)C6)n[nH]5)C4)C2)C3)cc1)C(F)(F)F (centres unmarked) [compound 603]
53 | 27.1 | O=C(N1CC2(CC(c3nc(C4CC4)n[nH]3)C2)C1)N1CC2(CN(Cc3coc(C(F)(F)F)n3)C2)C1 [compound 763]
